Consider 20 molecules from patent publication US11407736B2 (priority 2019, dated 2022).

Test [1] addresses RIPK1 (Homo sapiens (Human), UniProt Q13546). Briefly: RIPK1 ADP-Glo biochemical kinase assay. The conditions noted are these: read-out: RIPK1 ADP-Glo Kinase (IC50). The method, then:
The final reaction volume was 5.0ul.
Adding 5 μl of ADP-Glo™ terminated the reaction.

For test [2], the system named is L929 cells. Put plainly: L929 cell necroptosis assay (TNFa + zVAD, CellTiter-Glo). It is filed as cell-based, murine. The conditions noted are these: Mus musculus, TNFa + zVAD, read-out: L929-CTG-recovery, L929, TNFa + zVAD (IC50). In a few lines: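 Necroptosis was read as CellTiter-Glo luminescence 18 hours after TNFa stimulation at 37° C, 5% CO2. Prior to that, L929 cells (10K/well, plated 18 h) received fresh medium with 40 uM zVAD-fmk plus 4-fold serially diluted compound.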
(ATP-based viability assays read luminescence as a measure of living cells.)

For test [3], the system named is U937 cells. Put plainly: U937 cell necroptosis assay (TNFa + zVAD, CellTiter-Glo). The conditions noted are these: Homo sapiens, U-937, U937 cells, TNFa + zVAD; read-out: U937 Zvad TNF CTG Recovery, U937, TNFa + zVAD (IC50). The class given is cell-based, human. In a few lines:
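Necroptosis was induced with TNFa at 2 ng/mL final for 18 h at 37 °C, following 1 h compound pre-incubation in the presence of zVAD-fmk (60 uM for U937 plating medium, 40 uM for L929 medium). Luminescent CellTiter-Glo signal gave relative cell survival.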

Read-outs that look alike come from different tables or passages of the source.

Chain of RIPK1 (Q13546 whole entry, species assumed): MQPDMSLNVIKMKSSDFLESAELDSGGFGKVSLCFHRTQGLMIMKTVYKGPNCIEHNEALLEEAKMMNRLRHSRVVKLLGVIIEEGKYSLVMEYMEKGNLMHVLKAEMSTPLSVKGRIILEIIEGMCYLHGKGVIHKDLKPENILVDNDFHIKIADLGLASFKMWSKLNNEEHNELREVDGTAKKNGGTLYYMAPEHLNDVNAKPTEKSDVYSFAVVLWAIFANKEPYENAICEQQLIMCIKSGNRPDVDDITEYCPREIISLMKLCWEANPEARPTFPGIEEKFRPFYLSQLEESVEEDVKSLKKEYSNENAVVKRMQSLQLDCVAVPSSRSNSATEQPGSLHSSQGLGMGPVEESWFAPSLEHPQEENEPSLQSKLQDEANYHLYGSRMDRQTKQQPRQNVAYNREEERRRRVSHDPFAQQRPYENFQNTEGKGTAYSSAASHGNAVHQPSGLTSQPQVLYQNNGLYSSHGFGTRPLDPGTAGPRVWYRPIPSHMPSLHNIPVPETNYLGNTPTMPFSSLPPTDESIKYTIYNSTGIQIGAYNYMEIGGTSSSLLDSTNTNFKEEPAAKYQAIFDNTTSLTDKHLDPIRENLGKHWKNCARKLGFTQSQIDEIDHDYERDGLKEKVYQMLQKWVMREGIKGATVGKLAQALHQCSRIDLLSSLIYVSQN

For `CN1C(=O)[C@@H](NC(=O)n2cc(Cc3ccccc3)cn2)COc2ccc(C#Cc3ccccn3)cc21` [Compound I-215, (S)-4-Benzyl-N-(5-methyl-4-oxo-7-(pyridin-2-ylethynyl)-2,3,4,5-tetrahydrobenzo[b][1,4]oxazepin-3-yl)-1H-pyrazole-1-carboxamide], the IC50 – broadly, the midpoint of a concentration-inhibition curve – in test [1] is 32.1 nM; in test [2] (L929, L929 cells), 20.9 nM; in test [3], 0.3 nM.
The like results for `C=C(C)C#Cc1ccc2c(c1)NC(=O)[C@@H](NC(=O)c1n[nH]c(Cc3ccccc3)n1)CO2` [Compound I-93, (S)-5-benzyl-N-(7-(3-methylbut-3-en-1-yn-1-yl)-4-oxo-2,3,4,5-tetrahydrobenzo[b][1,4]oxazepin-3-yl)-1H-1,2,4-triazole-3-carboxamide] were, in that order, 64.1 nM, 921 nM and 3240 nM.
In the case of `CN1C(=O)[C@@H](NC(=O)c2ccn(Cc3ccccc3)n2)COc2ccc(C#CC(C)(C)O)cc21` [Compound I-77, (S)-1-benzyl-N-(7-(3-hydroxy-3-methylbut-1-yn-1-yl)-5-methyl-4-oxo-2,3,4,5-tetrahydrobenzo[b][1,4]oxazepin-3-yl)-1H-pyrazole-3-carboxamide], the IC50 stood at 32.7 nM in test [1]; 0.3 nM in test [2] (L929, L929 cells); 2.8 nM in test [3].
Turning to `CN1C(=O)[C@@H](NC(=O)c2cc(Oc3ccccc3)ccn2)COc2ccc(C#CC3(O)CCOCC3)cc21` [Compound I-123, (S)—N-(7-((4-hydroxytetrahydro-2H-pyran-4-yl)ethynyl)-5-methyl-4-oxo-2,3,4,5-tetrahydrobenzo[b][1,4]oxazepin-3-yl)-4-phenoxypicolinamide], the IC50 in test [1] was determined as 35.7 nM; in test [2] (L929, L929 cells), 53.5 nM; in test [3], 0.6 nM.
Take `CN1C(=O)[C@@H](NC(=O)c2n[nH]c(Cc3c(Cl)cccc3Cl)n2)COc2ccc(C#CC(C)(C)O)cc21` [Compound I-65, (S)-5-(2,6-dichlorobenzyl)-N-(7-(3-hydroxy-3-methylbut-1-yn-1-yl)-5-methyl-4-oxo-2,3,4,5-tetrahydrobenzo[b][1,4]oxazepin-3-yl)-1H-1,2,4-triazole-3-carboxamide]: the IC50 in test [1] came to 63.9 nM; in test [2] (L929, L929 cells), 41.5 nM; in test [3], 42 nM.
As for `CN1C(=O)[C@@H](NC(=O)c2n[nH]c(Cc3ccccc3)n2)COc2ccc(CN3CCn4c(nnc4C(F)(F)F)C3)cc21` [Compound I-47, (S)-5-benzyl-N-(5-methyl-4-oxo-7-((3-(trifluoromethyl)-5,6-dihydro-[1,2,4]triazolo[4,3-a]pyrazin-7(8H)-yl)methyl)-2,3,4,5-tetrahydrobenzo[b][1,4]oxazepin-3-yl)-1H-1,2,4-triazole-3-carboxamide], the IC50 in test [1] is 68.3 nM; in test [2] (L929, L929 cells), 1.5 nM; in test [3], 4.6 nM.
Regarding `CN1C(=O)[C@@H](NC(=O)c2ncn(Cc3ccccc3)n2)COc2ccc(C#CC3(O)COC3)cc21` [Compound I-58, (S)-1-benzyl-N-(7-((3-hydroxyoxetan-3-yl)ethynyl)-5-methyl-4-oxo-2,3,4,5-tetrahydrobenzo[b][1,4]oxazepin-3-yl)-1H-1,2,4-triazole-3-carboxamide], the IC50 in test [1] stood at 11 nM; in test [2] (L929, L929 cells) it was 0.2 nM; in test [3], 0.8 nM.
Take `CC(C)CCc1ccc2c(c1)N(C)C(=O)[C@@H](NC(=O)c1n[nH]c(Cc3ccccc3)n1)CO2` [Compound I-60, (S)-5-benzyl-N-(7-isopentyl-5-methyl-4-oxo-2,3,4,5-tetrahydrobenzo[b][1,4]oxazepin-3-yl)-1H-1,2,4-triazole-3-carboxamide]: the IC50 was 64.4 nM in test [1]; 2.4 nM in test [2] (L929, L929 cells); 4.8 nM in test [3].
For `CN1C(=O)[C@@H](NC(=O)c2n[nH]c(Cc3ccccc3)n2)COc2ccc(C#C[C@@]3(O)CO[C@@H]4[C@@H](O)CO[C@@H]43)cc21` [Compound I-75, 5-benzyl-N—((S)-7-(((3R,3aS,6S,6aR)-3,6-dihydroxyhexahydrofuro[3,2-b]furan-3-yl)ethynyl)-5-methyl-4-oxo-2,3,4,5-tetrahydrobenzo[b][1,4]oxazepin-3-yl)-1H-1,2,4-triazole-3-carboxamide] the same measures were 54.6 nM, 1.4 nM and 8.3 nM.
For `CN1C(=O)[C@@H](NC(=O)c2cc(OC3CCCC3)ccn2)COc2ccc(C#CC3(O)COC3)cc21` [Compound I-157, (S)-4-(cyclopentyloxy)-N-(7-((3-hydroxyoxetan-3-yl)ethynyl)-5-methyl-4-oxo-2,3,4,5-tetrahydrobenzo[b][1,4]oxazepin-3-yl)picolinamide] the same measures were 31.6 nM, 5160 nM and 25.5 nM.
On to `CN1C(=O)[C@@H](NC(=O)c2cc(Oc3ccccc3F)ccn2)COc2ccc(C#CC(C)(C)C)cc21` [Compound I-102, (S)—N-(7-(3,3-dimethylbut-1-yn-1-yl)-5-methyl-4-oxo-2,3,4,5-tetrahydrobenzo[b][1,4]oxazepin-3-yl)-4-(2-fluorophenoxy)picolinamide], for which the IC50 in test [1] came out at 383 nM; in test [2] (L929, L929 cells), 397 nM; in test [3], 27.3 nM.
Regarding `CN1C(=O)[C@@H](NC(=O)c2n[nH]c(Cc3ccccc3F)n2)COc2ccc(C#CC(C)(C)O)cc21` [Compound I-80, (S)-5-(2-fluorobenzyl)-N-(7-(3-hydroxy-3-methylbut-1-yn-1-yl)-5-methyl-4-oxo-2,3,4,5-tetrahydrobenzo[b][1,4]oxazepin-3-yl)-1H-1,2,4-triazole-3-carboxamide], the IC50 in test [1] is 20.6 nM; in test [2] (L929, L929 cells), 0.7 nM; in test [3] it was 2.7 nM.
For `CN1C(=O)[C@@H](NC(=O)c2n[nH]c(Cc3ccccc3)n2)COc2ccc(C#CC3(O)COC3)cc21` [Compound I-57, (S)-5-benzyl-N-(7-((3-hydroxyoxetan-3-yl)ethynyl)-5-methyl-4-oxo-2,3,4,5-tetrahydrobenzo[b][1,4]oxazepin-3-yl)-1H-1,2,4-triazole-3-carboxamide] the same measures were 21.5 nM, 0.9 nM and 3 nM.
For `COC1(C#Cc2ccc3c(c2)N(C)C(=O)[C@@H](NC(=O)c2cc(Oc4ccccc4)ccn2)CO3)COC1` [Compound I-128, (S)—N-(7-((3-methoxyoxetan-3-yl)ethynyl)-5-methyl-4-oxo-2,3,4,5-tetrahydrobenzo[b][1,4]oxazepin-3-yl)-4-phenoxypicolinamide] the same measures were 19.7 nM, 42.2 nM and 0.6 nM.
`CN1C(=O)[C@@H](NC(=O)c2cc(OC3CCCC3)ccn2)COc2ccc(C#CC(C)(C)O)cc21` [Compound I-156, (S)-4-(cyclopentyloxy)-N-(7-(3-hydroxy-3-methylbut-1-yn-1-yl)-5-methyl-4-oxo-2,3,4,5-tetrahydrobenzo[b][1,4]oxazepin-3-yl)picolinamide]: the IC50 in test [1] came out at 27.3 nM; in test [2] (L929, L929 cells), 10300 nM; in test [3], 55.4 nM.
The like results for `CN1CCC(O)(C#Cc2ccc3c(c2)N(C)C(=O)[C@@H](NC(=O)c2cc(Oc4ccc(F)cc4)ccn2)CO3)CC1` [Compound I-135, (S)-4-(4-fluorophenoxy)-N-(7-((4-hydroxy-1-methylpiperidin-4-yl)ethynyl)-5-methyl-4-oxo-2,3,4,5-tetrahydrobenzo[b][1,4]oxazepin-3-yl)picolinamide] were, in that order, 111 nM, 2630 nM and 224 nM.
For `CN1C(=O)[C@@H](NC(=O)c2ncn(Cc3ccccc3)n2)COc2ccc(C#CC3(O)CCCC3)cc21` [Compound I-52, (S)-1-benzyl-N-(7-((1-hydroxycyclopentyl)ethynyl)-5-methyl-4-oxo-2,3,4,5-tetrahydrobenzo[b][1,4]oxazepin-3-yl)-1H-1,2,4-triazole-3-carboxamide] the same measures were 24.9 nM, 0.3 nM and 0.9 nM.
The like results for `CN1C(=O)[C@@H](NC(=O)c2cc(Oc3ccccc3)ccn2)COc2ccc(C#CC(C)(C)CN3CCOCC3)cc21` [Compound I-140, (S)—N-(7-(3,3-dimethyl-4-morpholinobut-1-yn-1-yl)-5-methyl-4-oxo-2,3,4,5-tetrahydrobenzo[b][1,4]oxazepin-3-yl)-4-phenoxypicolinamide] were, in that order, 124 nM, 109 nM and 4.6 nM.
As for `CN1C(=O)[C@@H](NC(=O)c2cc(Oc3ccccc3F)ccn2)COc2ccc(C#CC3(O)COC3)cc21` [Compound I-112, (S)-4-(2-fluorophenoxy)-N-(7-((3-hydroxyoxetan-3-yl)ethynyl)-5-methyl-4-oxo-2,3,4,5-tetrahydrobenzo[b][1,4]oxazepin-3-yl)picolinamide], the IC50 in test [1] was 15.1 nM; in test [2] (L929, L929 cells), 14.2 nM; in test [3], 1.1 nM.
On to `CN1C(=O)[C@@H](NC(=O)c2ncn(Cc3ccccc3)n2)COc2ccc(C#CC(C)(C)C)cc21` [Compound I-48, (S)-1-benzyl-N-(7-(3,3-dimethylbut-1-yn-1-yl)-5-methyl-4-oxo-2,3,4,5-tetrahydrobenzo[b][1,4]oxazepin-3-yl)-1H-1,2,4-triazole-3-carboxamide], for which the IC50 in test [1] was 62.4 nM; in test [2] (L929 cells) it was 0.5 nM; in test [3], 1.6 nM.
